{
  "source": "patent US9278963B2",
  "about": "“Pyrimidine hydroxy amide compounds as histone deacetylase inhibitors” (Acetylon Pharmaceuticals, Inc., priority 2013, dated 2016)",
  "key": {"HDAC2": {"target": "HDAC2 (Homo sapiens (Human), UniProt Q92769)", "sequence (Q92769 whole entry)": "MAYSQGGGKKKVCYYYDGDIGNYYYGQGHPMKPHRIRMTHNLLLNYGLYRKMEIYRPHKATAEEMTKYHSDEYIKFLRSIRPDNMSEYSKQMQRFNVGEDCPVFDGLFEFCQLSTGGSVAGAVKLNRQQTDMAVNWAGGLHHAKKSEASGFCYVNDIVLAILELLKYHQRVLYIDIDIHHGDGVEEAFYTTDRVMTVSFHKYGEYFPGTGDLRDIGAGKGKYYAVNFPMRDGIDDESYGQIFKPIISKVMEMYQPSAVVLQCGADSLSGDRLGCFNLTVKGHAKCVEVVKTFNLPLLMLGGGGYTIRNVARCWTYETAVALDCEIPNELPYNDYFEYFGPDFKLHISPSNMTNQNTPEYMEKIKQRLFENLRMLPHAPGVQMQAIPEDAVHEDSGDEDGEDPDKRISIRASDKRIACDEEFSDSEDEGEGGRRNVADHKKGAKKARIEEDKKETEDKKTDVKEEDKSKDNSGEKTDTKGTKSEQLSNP", "assay": "HDAC enzyme assay, HDAC2", "assay_type": "biochemical", "protocol": "(§1) Compounds for testing were diluted in DMSO to 50 fold the final concentration and a ten point three fold dilution series was made. The compounds were diluted in assay buffer (50 mM HEPES, pH 7.4, 100 mM KCl, 0.001% Tween-20, 0.05% BSA, 20 μM TCEP) to 6 fold their final concentration. The HDAC enzymes (purchased from BPS Biosciences) were diluted to 1.5 fold their final concentration in assay buffer. The tripeptide substrate and trypsin at 0.05 μM final concentration were diluted in assay buffer at 6 fold their final concentration. The final enzyme concentrations used in these assays were 3.3 ng/ml (HDAC1), 0.2 ng/ml (HDAC2), 0.08 ng/ml (HDAC3) and 2 ng/ml (HDAC6). The final substrate concentrations used were 16 μM (HDAC1), 10 μM (HDAC2), 17 μM (HDAC3) and 14 μM (HDAC6).\n(§2) Five μl of compounds and 20 μl of enzyme were added to wells of a black, opaque 384 well plate in duplicate. Enzyme and compound were incubated together at room temperature for 10 minutes. Five μ1 of substrate was added to each well, the plate was shaken for 60 seconds and placed into a Victor 2 microtiter plate reader. The development of fluorescence was monitored for 60 min and the linear rate of the reaction was calculated. The IC50 was determined using Graph Pad Prism by a four parameter curve fit."}, "[1]": {"tested_on": "SK-N-BE(2) neuroblastoma cells", "assay": "Neuroblastoma cell cycle and p21, SK-N-BE(2)", "assay_type": "cell-based", "settings": "4 days", "protocol": "SK-N-BE(2) neuroblastoma cells were treated with varying concentrations of either Compound X or Y, and/or ATRA (all trans retinoic acid). The percentage of the population of the cells at various stages of the cell cycle were measured after 4 days. In addition, the fold change of p21 was also calculated. […] The HDACi/ATRA combination effects were modest, with little difference compared to single agents."}, "[2]": {"tested_on": "BE(2)-C neuroblastoma cells", "assay": "Neuroblastoma maturation gene expression, BE(2)-C", "assay_type": "cell-based", "protocol": "(§3) The following is a quick summary of the HDAC neuroblastoma maturation experiments. Adherent cells were plated into 12- or 24-well plates at 10^6 cells/well and allowed to adhere for 2-4 hours. Compounds were dispensed in DMSO at the indicated concentrations using an automated liquid handling system (Tecan D300) and incubated for the indicated times at 37° C. with 5% CO2. Cells were harvested and RNA extracted using the Qiagen RNeasy Mini Kit according to manufacture protocols. The RNA was quantified and relative expression levels were assessed using the Applied Biosystems TaqMan RNA-to-Ct Kit according to manufacture protocols using the indicated TaqMan probes.\n(§4) The protocol for the maturation experiments was as follows. The day before the experiment, the cells were fed in the flask by doubling the media. The cells were then harvested by adding non-enzymatic cell dissociation media and incubating at 37° C. for 15 minutes. The cells were transferred to a 50 ml tube and pipet to create a single-cell suspension. The cells were washed with PBS buffer. The cells were then resuspended in complete media at 5×10^5 cells per ml. Next, 2 ml of cells were transferred to 24- or 12-well plates. The treatment compounds were then dispensed into each well using the D300 liquid handler. The cells were then incubated for the indicated time at 37° C. The cells were harvested by scraping the cells and transferring to a 2 ml tube. The cells were spun to form a pellet. Next, RNA was extracted using the Qiagen RNeasy Mini kit according to manufacture protocols. The RNA concentration was recorded. The relative RNA levels were assessed using the Applied Biosystems TaqMan RNA-to-Ct kit according to manufacture protocols using the indicated Taqman probes."}, "HDAC1": {"target": "HDAC1 (Homo sapiens (Human), UniProt Q13547)", "sequence (Q13547 whole entry)": "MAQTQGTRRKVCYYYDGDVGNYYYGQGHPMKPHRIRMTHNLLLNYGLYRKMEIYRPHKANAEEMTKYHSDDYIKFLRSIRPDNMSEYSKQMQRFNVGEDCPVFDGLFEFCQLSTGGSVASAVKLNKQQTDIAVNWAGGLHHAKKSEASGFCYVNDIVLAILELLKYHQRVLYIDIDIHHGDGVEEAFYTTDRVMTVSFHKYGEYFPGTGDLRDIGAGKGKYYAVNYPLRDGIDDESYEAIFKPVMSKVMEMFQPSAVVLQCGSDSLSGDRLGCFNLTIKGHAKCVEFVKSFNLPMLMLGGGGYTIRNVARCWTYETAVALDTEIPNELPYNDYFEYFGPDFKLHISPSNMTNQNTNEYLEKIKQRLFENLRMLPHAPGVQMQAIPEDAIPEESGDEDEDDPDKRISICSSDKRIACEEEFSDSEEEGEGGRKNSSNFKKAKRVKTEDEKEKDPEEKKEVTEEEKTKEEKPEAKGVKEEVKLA", "assay": "HDAC enzyme assay, HDAC1", "assay_type": "biochemical", "protocol": "as §1, §2"}, "[3]": {"tested_on": "SH-SY5Y neuroblastoma cells", "assay": "Neuroblastoma cell cycle by flow cytometry, SH-SY5Y", "assay_type": "cell-based", "protocol": "The following is a quick summary of the neuroblastoma cell cycle experiments. Adherent cells were plated into 12-well plates at 10^6 cells/well and allowed to adhere for 2-4 hours. Compounds were dispensed in DMSO at the indicated concentrations using an automated liquid handling system (Tecan D300) and incubated for the indicated times at 37° C. with 5% CO2. Cells were harvested with enzyme-free cell disassociation solution and washed with buffered saline. Cells were fixed overnight with 100% ethanol. Cell cycle was assessed by flow cytometry using the Molecular Probes FxCycle PI/RNase Staining Solution kit according to manufacture protocols.\nThe protocol for the cell cycle experiments was as follows. The day before the experiment, the cells were fed in the flask by doubling the media. Then, the cells were harvested by adding non-enzymatic cell dissociation media and incubating at 37° C. for 15 minutes. Next, the cells were transferred to a 50 ml tube and pipet to create a single-cell suspension. The cells were then washed with PBS buffer. Then, the cells were resuspended in complete media at 5×10^5 cells per ml. Next, 2 ml of cells were transferred to 12-well plates. Then, the treatment compounds were dispensed into each well using the D300 liquid handler. The cells were incubated for the indicated time at 37° C. Then, the cells were harvested by adding 500 μl enzyme free cell dissociation solution and incubating at 37° C. for 15 minutes. Next, the cells were spun into a pellet and then washed with PBS. Then, 500 μl 100% EtOH was added and incubated at 4° C. overnight. Then, the cells were washed 3× with PBS. The cells were then resuspended in […] FxCycle PI/RNase solution, and incubated for 2-4 hours at room temperature. Finally, the cells were assayed by flow cytometry.\nSH-SY5Y neuroblastoma cells were treated with varying concentrations of either Compound X or Y, and/or ATRA (all trans retinoic acid). […] In addition, the fold change of p21 was also calculated. […] The HDACi/ATRA combination effects were modest, with little difference compared to single agents."}, "[4]": {"tested_on": "SH-SY5Y neuroblastoma cells", "assay": "Neuroblastoma maturation gene expression, SH-SY5Y", "assay_type": "cell-based", "settings": "72 hours, 1 μM", "protocol": "as §3\nas §4, with “The treatment compounds were then dispensed into each well using the D300 liquid handler. The cells were then incubated for the indicated time at 37° C. The cells were harvested by scraping the cells and transferring to a 2 ml tube. The cells were spun to form a pellet. Next, RNA was extracted using the Qiagen RNeasy Mini kit according to manufacture protocols.” left out"}, "HDAC3": {"target": "HDAC3 (Homo sapiens (Human), UniProt O15379)", "sequence (O15379 whole entry)": "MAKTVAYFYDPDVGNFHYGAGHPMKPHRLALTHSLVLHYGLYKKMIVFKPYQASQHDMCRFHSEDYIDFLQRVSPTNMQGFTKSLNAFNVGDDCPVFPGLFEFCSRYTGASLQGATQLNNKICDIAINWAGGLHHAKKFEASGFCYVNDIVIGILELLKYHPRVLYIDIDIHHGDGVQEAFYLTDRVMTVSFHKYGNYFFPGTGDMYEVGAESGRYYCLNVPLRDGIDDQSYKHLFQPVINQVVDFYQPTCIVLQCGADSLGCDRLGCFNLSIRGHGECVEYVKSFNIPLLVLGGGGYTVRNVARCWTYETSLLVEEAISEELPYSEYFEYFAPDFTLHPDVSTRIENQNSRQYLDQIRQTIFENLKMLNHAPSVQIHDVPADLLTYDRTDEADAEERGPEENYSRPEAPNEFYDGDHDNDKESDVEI", "sequence (Q9Y618 395-489 partner)": "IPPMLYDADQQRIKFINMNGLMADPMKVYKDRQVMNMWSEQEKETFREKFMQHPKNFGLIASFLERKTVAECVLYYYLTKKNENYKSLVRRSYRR", "assay": "HDAC enzyme assay, HDAC3", "assay_type": "biochemical", "protocol": "Compounds for testing were diluted in DMSO to 50 fold the final concentration and a ten point three fold dilution series was made. The compounds were diluted in assay buffer (50 mM HEPES, pH 7.4, 100 mM KCl, 0.001% Tween-20, 0.05% BSA, 20 μM TCEP) to 6 fold their final concentration. […] The tripeptide substrate and trypsin at 0.05 μM final concentration were diluted in assay buffer at 6 fold their final concentration. The final enzyme concentrations used in these assays were 3.3 ng/ml (HDAC1), 0.2 ng/ml (HDAC2), 0.08 ng/ml (HDAC3) and 2 ng/ml (HDAC6).\nas §2"}, "[5]": {"tested_on": "SK-N-BE(2) or SH-SY5Y neuroblastoma cells", "assay": "Neuroblastoma differentiation index", "assay_type": "cell-based", "protocol": "SK-N-BE(2) or SH-SY5Y neuroblastoma cells were treated with varying concentrations of either Compound X or Y, and/or ATRA (all trans retinoic acid). The differentiation index was measured.\nSK-N-BE(2) or SH-SY5Y neuroblastoma cells were treated with varying concentrations of either Compound X or Y, and/or ATRA (all trans retinoic acid). The differentiation index was measured. As a control, SK-N-BE(2) or SH-SY5Y neuroblastoma cells were treated with varying concentrations of ATRA."}},
  "data": [
    {"smiles": "Nc1ccc(-c2cccs2)cc1NC(=O)c1ccc2c(c1)cc(C1CC1)n2CCN1CCOCC1", "note": "[Compound X, N-(2-amino-5-(thiophen-2-yl)phenyl)-2-cyclopropyl-1-(2-morpholinoethyl)-1H-indole-5-carboxamide]", "values": [
      {"measurement": "IC50", "setting": "HDAC2", "result": 0.036, "unit": "µM"},
      {"measurement": "cell cycle stages and fold change of p21", "setting": "[1]", "result": "induced cell cycle arrest"},
      {"measurement": "fold change of genes associated with maturation", "setting": "[2]; 72 hours, 1 μM", "result": "alters genes associated with maturation"},
      {"measurement": "fold change of genes associated with maturation", "setting": "[2]; 4 days, 0.5, 1 and 3 μM", "result": "alters genes associated with maturation"},
      {"measurement": "IC50", "setting": "HDAC1", "result": 0.006, "unit": "µM"},
      {"measurement": "percent of the cell population in G2, S, G1 and Sub G1 phase", "setting": "[3]; 72 hours, 0.5, 2 and 5 μM (ATRA 1 μM)", "result": "induced similar cell cycle changes in all treatment groups"},
      {"measurement": "cell cycle stages and fold change of p21", "setting": "[3]; 4 days", "result": "induced cell cycle arrest"},
      {"measurement": "fold change of genes associated with maturation", "setting": "[4]", "result": "alters genes associated with maturation"},
      {"measurement": "IC50", "setting": "HDAC3", "result": 0.445, "unit": "µM"},
      {"measurement": "differentiation index, low-concentration ATRA", "setting": "[5]; 0.25 μM ATRA, alone or with HDAC inhibitor", "result": "potentiated 0.25 μM ATRA"},
      {"measurement": "differentiation index", "setting": "[5]; varying concentrations, alone", "result": "induced an increase in the differentiation index"}
    ]}
  ]
}
